Results published in ChEMBL document CHEMBL1132060, “Octa- and nonaprenylhydroquinone sulfates, inhibitors of alpha1,3-fucosyltransferase VII, from an Australian marine sponge Sarcotragus sp” (Bioorg Med Chem Lett, 1999).

Assay: Inhibitory activity against fuc-TVII

Row | IC50 | SMILES
1 | 3.9 µg/mL | CC(C)=CCC/C(C)=C/CC/C(C)=C/CC/C(C)=C/CC/C(C)=C/CC/C(C)=C/CC/C(C)=C/CC/C(C)=C/Cc1cc(O)ccc1OS(=O)(=O)[O-].[Na+]
2 | 2.4 µg/mL | CC(C)=CCC/C(C)=C/CC/C(C)=C/CC/C(C)=C/CC/C(C)=C/CC/C(C)=C/CC/C(C)=C/CC/C(C)=C/CC/C(C)=C/Cc1cc(O)ccc1OS(=O)(=O)[O-].[Na+]
